How the values were obtained:
Assay in all cases: relative viability (nuclei count vs DMSO), 5 days (fraction); higher = more cells survive
[1] = tested on: HOP-62
How it was run: (§1)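 Values are medians from duplicate plates. Each reflects relative viability, defined as the nuclei count of treated wells over that of vehicle wells. Lung cancer cell lines in 1536-well plates were pin-tool dosed one day after seeding with one drug alone or with a fixed anchor-drug dose plus five library-drug doses (not always all listed) in √10 steps, then fixed, stained and imaged at 4× after 5 days.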

[2] = tested on: HCC-44
How it was run: as §1

[3] = tested on: NCI-H520
How it was run: as §1

[4] = tested on: H3255
How it was run: as §1

[5] = tested on: NCI-H2342
How it was run: as §1

[6] = tested on: NCI-H1355
How it was run: as §1

[7] = tested on: LCLC-103H
How it was run: as §1

[8] = tested on: SK-MES-1
How it was run: as §1

[9] = tested on: NCI-H647
How it was run: as §1

[10] = tested on: NCI-H2126
How it was run: as §1

[11] = tested on: COR-L 105
How it was run: as §1

[12] = tested on: RERF-LC-KJ
How it was run: as §1

[13] = tested on: 201T
How it was run: as §1

[14] = tested on: A-427
How it was run: as §1

[15] = tested on: NCI-H23
How it was run: as §1

[16] = tested on: NCI-H441
How it was run: as §1

[17] = tested on: NCI-H1915
How it was run: as §1

[18] = tested on: NCI-H322M
How it was run: as §1

[19] = tested on: NCI-H2087
How it was run: as §1

[20] = tested on: COR-L23
How it was run: as §1

[21] = tested on: NCI-H2085
How it was run: as §1

[22] = tested on: NCI-H1651
How it was run: as §1

[23] = tested on: LC-2-ad
How it was run: as §1

[24] = tested on: ChaGo-K-1
How it was run: as §1

[25] = tested on: NCI-H1993
How it was run: as §1

In the case of `Nc1cccc2c1CN(C1CCC(=O)NC1=O)C2=O` (stereo not drawn) [Lenalidomide] + O=C(c1cc(Cc2n[nH]c(=O)c3ccccc23)ccc1F)N1CCN(C(=O)C2CC2)CC1 [Olaparib] (partner 8 µM), the relative viability ([1]; first compound 0.253 µM) is reported as 0.38, the relative viability ([1]; first compound 0.8 µM) is reported as 0.366 and the relative viability ([1]; first compound 2.53 µM) is reported as 0.537. The relative viability ([1]; first compound 8 µM) was 0.406, the relative viability ([2]; first compound 0.253 µM) was 0.981 and the relative viability ([2]; first compound 0.8 µM) was 0.873. It also gave a relative viability ([2]; first compound 2.53 µM) of 1.02, a relative viability ([2]; first compound 8 µM) of 1.05 and a relative viability ([3]; first compound 0.253 µM) of 0.368. It also gave a relative viability ([3]; first compound 0.8 µM) of 0.359, a relative viability ([3]; first compound 2.53 µM) of 0.375 and a relative viability ([3]; first compound 8 µM) of 0.35. For the same compound, the relative viability ([4]; first compound 0.253 µM) was 0.556, the relative viability ([4]; first compound 0.8 µM) was 0.579 and the relative viability ([4]; first compound 2.53 µM) was 0.602. The relative viability ([4]; first compound 8 µM) was 0.614, the relative viability ([5]; first compound 0.253 µM) was 0.464 and the relative viability ([5]; first compound 0.8 µM) was 0.415. It also gave a relative viability ([5]; first compound 2.53 µM) of 0.437, a relative viability ([5]; first compound 8 µM) of 0.399 and a relative viability ([6]; first compound 0.253 µM) of 0.756. The relative viability ([6]; first compound 0.8 µM) was 0.5, the relative viability ([6]; first compound 2.53 µM) was 0.857 and the relative viability ([6]; first compound 8 µM) was 0.709. The relative viability ([7]; first compound 0.253 µM) was 0.718, the relative viability ([7]; first compound 0.8 µM) was 0.667 and the relative viability ([7]; first compound 2.53 µM) was 0.76. It also gave a relative viability ([7]; first compound 8 µM) of 0.741, a relative viability ([8]; first compound 0.253 µM) of 0.717 and a relative viability ([8]; first compound 0.8 µM) of 0.691. For the same compound, the relative viability ([8]; first compound 2.53 µM) was 0.715, the relative viability ([8]; first compound 8 µM) was 0.806 and the relative viability ([9]; first compound 0.253 µM) was 0.525. It also gave a relative viability ([9]; first compound 0.8 µM) of 0.543, a relative viability ([9]; first compound 2.53 µM) of 0.65 and a relative viability ([9]; first compound 8 µM) of 0.566. For the same compound, the relative viability ([10]; first compound 0.253 µM) was 0.934, the relative viability ([10]; first compound 0.8 µM) was 0.857 and the relative viability ([10]; first compound 2.53 µM) was 0.983. It also gave a relative viability ([10]; first compound 8 µM) of 0.854, a relative viability ([11]; first compound 0.253 µM) of 0.737 and a relative viability ([11]; first compound 0.8 µM) of 0.712. It also gave a relative viability ([11]; first compound 2.53 µM) of 0.748, a relative viability ([11]; first compound 8 µM) of 0.774 and a relative viability ([12]; first compound 0.253 µM) of 0.812. It also gave a relative viability ([12]; first compound 0.8 µM) of 0.704, a relative viability ([12]; first compound 2.53 µM) of 0.884 and a relative viability ([12]; first compound 8 µM) of 1.05. For the same compound, the relative viability ([13]; first compound 0.253 µM) was 0.847, the relative viability ([13]; first compound 0.8 µM) was 0.865 and the relative viability ([13]; first compound 2.53 µM) was 0.864. It also gave a relative viability ([13]; first compound 8 µM) of 0.92, a relative viability ([14]; first compound 0.253 µM) of 0.713 and a relative viability ([14]; first compound 0.8 µM) of 0.504. The relative viability ([14]; first compound 2.53 µM) was 0.838, the relative viability ([14]; first compound 8 µM) was 0.79 and the relative viability ([15]; first compound 0.253 µM) was 0.289. For the same compound, the relative viability ([15]; first compound 2.53 µM) was 0.3, the relative viability ([15]; first compound 8 µM) was 0.367 and the relative viability ([16]; first compound 0.253 µM) was 0.471. It also gave a relative viability ([16]; first compound 0.8 µM) of 0.502, a relative viability ([16]; first compound 2.53 µM) of 0.625 and a relative viability ([16]; first compound 8 µM) of 0.577. The relative viability ([17]; first compound 0.253 µM) was 0.265, the relative viability ([17]; first compound 0.8 µM) was 0.263 and the relative viability ([17]; first compound 2.53 µM) was 0.284. It also gave a relative viability ([17]; first compound 8 µM) of 0.272, a relative viability ([18]; first compound 0.253 µM) of 0.831 and a relative viability ([18]; first compound 0.8 µM) of 0.736. The relative viability ([18]; first compound 2.53 µM) was 0.886, the relative viability ([18]; first compound 8 µM) was 0.945 and the relative viability ([19]; first compound 0.253 µM) was 0.562. For the same compound, the relative viability ([19]; first compound 2.53 µM) was 0.689, the relative viability ([19]; first compound 8 µM) was 0.685 and the relative viability ([20]; first compound 0.253 µM) was 0.329. It also gave a relative viability ([20]; first compound 0.8 µM) of 0.316, a relative viability ([20]; first compound 2.53 µM) of 0.356 and a relative viability ([20]; first compound 8 µM) of 0.393. For the same compound, the relative viability ([21]; first compound 0.253 µM) was 0.793, the relative viability ([21]; first compound 0.8 µM) was 0.796 and the relative viability ([21]; first compound 2.53 µM) was 0.841. It also gave a relative viability ([21]; first compound 8 µM) of 0.752, a relative viability ([22]; first compound 0.253 µM) of 0.153 and a relative viability ([22]; first compound 0.8 µM) of 0.169. For the same compound, the relative viability ([22]; first compound 2.53 µM) was 0.219, the relative viability ([22]; first compound 8 µM) was 0.194 and the relative viability ([23]; first compound 0.253 µM) was 0.359. The relative viability ([23]; first compound 0.8 µM) was 0.716, the relative viability ([23]; first compound 2.53 µM) was 0.777 and the relative viability ([23]; first compound 8 µM) was 0.782. The relative viability ([24]; first compound 0.253 µM) was 0.387, the relative viability ([24]; first compound 0.8 µM) was 0.407 and the relative viability ([24]; first compound 2.53 µM) was 0.421. It also gave a relative viability ([24]; first compound 8 µM) of 0.478, a relative viability ([25]; first compound 0.253 µM) of 0.897 and a relative viability ([25]; first compound 0.8 µM) of 1.42. It also gave a relative viability ([25]; first compound 2.53 µM) of 1.09 and a relative viability ([25]; first compound 8 µM) of 0.889.

— the supplement of paper PMC10307832
